Assay results reported in US20020137162A1, “Antisense oligonucleotide inhibition of specific histone deacetylase isoforms” (priority 2000, published 2002).
d = 2'-deoxy (DNA); m = 2'-O-methyl

Columns and labels:
human HDAC-4 = assay: Antisense ODN screen, HDAC-4 RNA, T24 cells; assay type: cell-based; settings: 100 nM, 24 hours, Northern blot
Experimental: Seventeen phosphorothioate ODNs containing sequences complementary to the 5′ or 3′ UTR of the human HDAC-4 gene (GenBank Accession No. AB006626) were screened as above. […] HDAC-4 MM1 and MM2 oligonucleotides were created as controls; compared to the antisense oligonucleotides, they each contain a 6-base mismatch.
(§1) Briefly, human A549 and/or T24 human bladder carcinoma cells were seeded in 10 cm tissue culture dishes one day prior to oligonucleotide treatment. The cell lines were obtained from the American Type Culture Collection (ATCC) (Manassas, Va.) and were grown under the recommended culture conditions. Before the addition of the oligonucleotides, cells were washed with PBS (phosphate buffered saline). Next, lipofectin transfection reagent (GIBCO BRL Mississauga, Ontario, Calif.), at a concentration of 6.25 μg/ml, was added to serum free OPTIMEM medium (GIBCO BRL, Rockville, Md.), which was then added to the cells. The oligonucleotides to be screened were then added directly to the cells (i.e., one oligonucleotide per plate of cells). Mismatched oligonucleotides were used as controls. The same concentration of oligonucleotide (e.g., 50 nM) was used per plate of cells for each oligonucleotide tested.
(§2) Cells were harvested, and total RNAs were analyzed by Northern blot analysis. Briefly, total RNA was extracted using RNeasy miniprep columns (QIAGEN). […]

A549 [1] = assay: Cell growth inhibition, trypan blue cell count; assay type: cell-based, human; settings: A549 cancer cells, 50 nM, 72 hours
Experimental: (§3) In order to determine the effect of HDAC OSDNs on cell growth and cell death through apoptosis, A549 or T24 cells, MDAmb231 cells, and HMEC cells (ATCC, Manassas, Va.) were treated with HDAC OSDNs as previously described.
(§4) Cells were harvested and cell numbers counted by trypan blue exclusion using a hemocytometer. Percentage of inhibition was calculated as (100—AS cell numbers/control cell numbers) %.

MDAmb231 [2] = assay: Cell growth inhibition, trypan blue cell count; assay type: cell-based, human; settings: MDAmb231 cancer cells, 50 nM, 72 hours
Experimental: as §3, §4

T24 [3] = assay: Cell growth inhibition, trypan blue cell count; assay type: cell-based, human; settings: T24 cancer cells, 50 nM, 72 hours
Experimental: as §3, §4

A549 [4] = assay: Apoptosis, Cell Death Detection ELISA; assay type: cell-based, human; settings: fold over non-specific background, TSA at 100 ng/ml
Experimental: as §3
(§5) For the apoptosis study, cells were analyzed using the Cell Death Detection ELISA ^PLUSkit (Roche Diagnostic GmBH, Mannheim, Germany) according to the manufacturer's directions. Typically, 10,000 cells were plated in 96-well tissue culture dishes for 2 hours before harvest and lysis. Each sample was analyzed in duplicate. ELISA reading was done using a MR700 plate reader (DYNEX Technology, Ashford, Middlesex, England) at 410 nm. The reference was set at 490 nm.

HMEC [5] = assay: Apoptosis, Cell Death Detection ELISA; assay type: cell-based, human; settings: fold over non-specific background, TSA at 100 ng/ml
Experimental: as §3, §5

MDAmb231 [6] = assay: Apoptosis, Cell Death Detection ELISA; assay type: cell-based, human; settings: fold over non-specific background, TSA at 100 ng/ml
Experimental: as §3, §5

T24 [7] = assay: Apoptosis, Cell Death Detection ELISA; assay type: cell-based, human; settings: fold over non-specific background, TSA at 100 ng/ml
Experimental: as §3, §5

p21 protein = assay: Western blot of p21 protein in A549 cells; assay type: cell-based, human
Experimental: Experiments were also conducted to examine the affect of HDAC antisense oligonucleotides on HDAC protein expression. In A549 cells, treatment with HDAC-4 antisene oligonucleotides results in a dramatic increase in the level of p21 protein (FIG. 15).

human HDAC-6 = assay: Antisense ODN screen, HDAC-6 RNA, T24 cells; assay type: cell-based; settings: 100 nM, 24 hours, Northern blot
Experimental: Thirteen phosphorothloate ODNs containing sequences complementary to the 5′ or 3′ untranslated regions of the human HDAC-6 gene (GenBank Accession No. AJ011972) were screened as above. […] HDAC-6MM oligo was created as a control; compared to the antisense oligo, it contains a 7-base mismatch.
as §1, §2

HDAC-6 protein = assay: Western blot of HDAC isotype protein expression in A549 cells, HDAC-6; assay type: cell-based, human; settings: 50 nM, 48 hours
Experimental: OSDN treatment conditions were as previously described.
Cells were lysed in buffer containing 1% Triton X-100, 0.5% sodium deoxycholate, 5 mM EDTA, 25 mM Tris-HC1, pH 7.5, plus protease inhibitors. Total protein was quantified by the protein assay reagent from Bio-Rad (Hercules, Calif.). 100 ug of total protein was analyzed by SDS-PAGE. Next, total protein was transferred onto a PVDF membrane and probed with various HDAC-specific primary antibodies. Rabbit anti-HDAC-1 (H-51), anti-HDAC-2 (H-54) antibodies (Santa Cruz Biotechnologies, Santa Cruz, Calif.) were used at 1:500 dilution. Rabbit anti-HDAC-3 antibody (Sigma, St. Louis, Mo.) was used at a dilution of 1:1000. Anti-HDAC-4 antibody was prepared as previously described (Wang, S. H. et al., (1999) Mol. Cell. Biol. 19:7816-27), and was used at a dilution of 1:1000. Anti-HDAC-6 antibody was raised by immunizing rabbits with a GST fusion protein containing a fragment of HDAC-6 protein (amino acid #990 to #1216, GenBank Accession No. AAD29048). Rabbit antiserum was tested and found only to react specifically to the human HDAC-6 isoform. HDAC-6 antiserum was used at 1:500 dilution in Western blots to detect HDAC-6 in total cell lysates. Horse Radish Peroxidase conjugated secondary antibody was used at a dilution of 1:5000 to detect primary antibody binding. […]

HMEC [8] = assay: Cell growth inhibition, trypan blue cell count; assay type: cell-based, human; settings: HMEC normal cells, 50 nM, 72 hours
Experimental: as §3, §4

A549 cells = assay: Growth in soft agar, colony count; assay type: cell-based, human; settings: colonies counted after three weeks
Experimental: 1.3 g granulated agar (DIDFCO) was added to 100 ml deionized water and boiled in a microwave to sterilize. The boiled agar was held at 55 C until further use. Iscove's Modified Dulbecco×s Medium (GIBCO/BRL), 100× Penicillin-Streptomycin-Glutamine (GIBCO/BRL) and fetal bovine serum (medicorp) were pre-warmed at 37 C. To 50 ml sterile tubes was added 9 ml Isove's medium, 2 ml fetal bovine serum and 0.2 ml 100× Pen-Strep-Gln. Then 9 ml 55 C 1.3% agar was added to each tube. The tube contents were mixed immediately, avoiding air bubbles, and 2.5 ml of the mixture was poured into each sterile 6 cm petri dish to form a polymerized bottom layer. Dishes with polymerized bottom layers were then put in a CO2 incubator at 37 C until further use. In 50 ml sterile tubes were prewarmed at 37 C for each 4 cell lines/samples, 20 ml Iscove's medium, 0.4 ml 100× Pen-Strep-Gln and 8 ml fetal bovine serum. Cells were trypsinized and counted by trypan blue staining and 20,000 cells were aliquotted into a sterile 15 ml tube. To the tube was then added DMEM with low glucose (GIBCO/BRL)+10% fetal bovine serum+Pen-Strep-Gln to a final volume of 1 ml. To the prewarmed 37 C mix in the 50 ml tube was quickly added 8 ml 55 C 1.3% agar, which was then mixed well. […] Plates were wrapped up in foil paper and incubated in a CO2 incubator at 37° C. for three weeks, at which time colonies in agar are counted.

human cancer cells = assay: Cell growth and apoptosis, summary for cancer cells; assay type: cell-based; settings: Tables 3 and 4
Experimental: as §3, §5, §4

Row | Substance | antisense activity to human HDAC-4 (human HDAC-4) | Growth Inhibition (AS vs. MM) (A549 [1]) | Growth Inhibition (AS vs. MM) (MDAmb231 [2]) | Growth Inhibition (AS vs. MM) (T24 [3]) | Apoptosis After 48 Hour Treatment (A549 [4]) | Apoptosis After 48 Hour Treatment (HMEC [5]) | Apoptosis After 48 Hour Treatment (MDAmb231 [6]) | Apoptosis After 48 Hour Treatment (T24 [7]) | level of p21 protein (p21 protein) | antisense activity to human HDAC-6 (human HDAC-6) | HDAC-6 protein expression (HDAC-6 protein) | Growth Inhibition (AS vs. MM) (HMEC [8]) | growth of A549 cells in soft agar (A549 cells) | growth arrest and apoptosis of human cancer cells (human cancer cells)
1 | 5-GCTGCCTGCCGTGCCCACCC-3′ (sugars from the 5' end m4 d12 m4, all phosphorothioate, methylation of C and T or U not given here) [HDAC-4 AS1] | antisense activity | +++ (“+++”: >75% inhibition) | ++ (“++”: 50-75% inhibition) | ++ (“++”: 50-75% inhibition) | +++ (“+++”: 5-8X fold) | − (“−”: <= 2x fold over non-specific background) | ++ (“++”: 3-5X fold) | + (“+”: 2-3X fold) | induces the expression |  |  |  |  | 
2 | 5′-CAGGCTGGAATGAGCTACAG-3′ (chemistry not given here) [HDAC-6 AS] |  | − (“−”: no inhibition) |  | − (“−”: no inhibition) | − (“−”: <= 2x fold over non-specific background) | − (“−”: <= 2x fold over non-specific background) | − (“−”: <= 2x fold over non-specific background) | − (“−”: <= 2x fold over non-specific background) |  | antisense activity | specifically inhibits | − (“−”: no inhibition) | do not | no effect
